According to paper PMC8002023, “3D Pharmacophore-Based Discovery of Novel KV10.1 Inhibitors with Antiproliferative Activity” (Cancers, 2021):
Entries after “also recorded” stand apart in the source; their conditions may differ.

Assays:
hERG = biological target: T1, hERG (Homo sapiens, UniProt Q12809); test: Whole-cell patch clamp on stably transfected HEK-293 cells, hERG tail current; assay type: cell-based; conditions: peak tail current at −40 mV after +20 mV
T1 construct: expressed in transfected cells
Experimental: Whole-cell patch clamp experiments were performed on stably transfected HEK-293 cells. The cells were grown on fibronectin-coated glass coverslips in DMEM supplemented with 10% FCS and 300 µg/mL Zeocin. Experiments were performed at room temperature under continuous perfusion. The extracellular solution contained (mM) 160 NaCl, 2.5 KCl, 2 CaCl2, 1 MgCl2, 10 Hepes/NaOH, pH 7.4, 8 glucose. For the experiments determining conductance–voltage relationships, tail currents were made visible by substituting 60 mM NaCl by KCl ([…], 100 NaCl). Pipettes were pulled from #1 glass capillaries (WPI) to resistances of 1–3 MΩ when loaded with the intracellular solution (100 KCl, 45 N-methyl-D-glucamine, 10 1,2-bis(o-aminophenoxy)ethane-N,N,N′,N′-tetraacetic acid (BAPTA), 10 Hepes pH 7.35). Data acquisition was performed using a EPC10 Plus amplifier (HEKA Elektronik) and Patch Master software. Drug application was performed using an 8-channel fast solution exchanger (ALA). All compounds were dissolved in DMSO to a final concentration of 10 mM. 0.5% DMSO in extracellular solution served as control. KV10.1 currents were elicited by 500 ms depolarisations to +40 mV under continuous perfusion with the compound-containing or control solution. hERG current amplitudes were measured as the peak tail current during a 4 s repolarization to −40 mV after a depolarising pulse to +20 mV lasting for 2 s.

MCF-7 cells = test: Cell growth in 2D culture (Incucyte confluence, 72 h), MCF-7; assay type: cell-based; conditions: for IC50: high KV10.1 and low hERG expression
Experimental: Cell lines MCF-7 (DSMZ ACC 115), PANC-1 (DSMZ ACC 783), and hTERT-RPE1 (ATCC CRL 4000) were grown in the media recommended by the cell provider in a humidified atmosphere at 5% CO2 and 37 °C. For cell growth experiments, 10^4 cells/well were seeded in 96-well flat bottom culture plates (Corning) and allowed to grow for 24 h. The compounds were then added in the corresponding growth medium, and the plate was imaged every hour for 72 h (two images per well and eight wells per condition in two independent experiments for compound 8 and five for ZVS-08 and compound 1) in an Incucyte system (Sartorius/Essen biosciences). Culture confluence was determined in the phase contrast images and is expressed as percent confluence per well. The growth was then normalised to the value in the absence of compounds.
KV10.1 inhibitors with a favourable pharmacological profile are promising candidates for cancer therapy. To investigate the activity of the new compounds on cancer cells proliferation, compounds ZVS-08, 1 and 8 were tested on MCF-7, a breast cancer cell line showing high KV10.1 expression and low hERG expression, and on Panc1, a pancreatic cancer cell line with undetectable KV10.1 expression and high level of hERG expression. hTERT-RPE1 cells served as a non-cancer cell line. hTERT-RPE1 cells show transient physiological expression of Kv10.1 that begins during the G2 phase of the cell cycle and extends through mitosis as present in normal cells. Different concentrations of the compounds were added to the culture medium and the growth of the cell was monitored over 72 h (Figure 14).

[1] = tested on: Salmonella typhimurium strain TA98; test: Salmonella/microsomal reverse mutation (Ames) assay, TA98; design: key to bacterial background lawn: slightly reduced bacterial background; moderately reduced bacterial background; extremely reduced bacterial background; bacterial background is absent; conditions: for mutagenic response: TA98, 0.0158–0.158 mg/plate, −S9 and +S9; for cytotoxic concentration to bacterial strain: TA98, −/+ S9 metabolic activation; for induction factor (IF): IF ≥ 2 positive
Experimental: Mutagenicity of compounds ZVS-08 and 8 was tested with the Salmonella/microsomal reverse mutation (Ames) assay on Salmonella typhimurium strains TA98 and TA100 without and with external metabolic activation according to the OECD guidelines (OECD TG 471) with minor modifications. Briefly, 100 µL of ZVS-08 and 8 (0.158, 0.5, 1.58, 5, 15.8, and 50 mg/mL corresponding to the final concentration of 0.0158, 0.05, 0.158, 0.5, 1.58, and 5 mg/plate, respectively), […] bacterial culture of S. typhimurium (overnight culture at 37 °C), and […] of phosphate buffer (for assays without metabolic activation) or 10% S9 mix (for assays with metabolic activation) were added to 2 mL of molten top agar (supplemented with histidine/biotin, final concentration 0.05 mM), gently mixed and poured onto minimal agar plates. The number of His+ revertants was counted after 48 h (TA100) and 72 h (TA98) of incubation at 37 °C. Three plates were used per treatment point. The mutagenic potential of the compounds was expressed as an induction factor (IF), where IF = (number of revertants in the presence of the compound)/(number of revertants in solvent control). Additionally, each plate was checked for possible toxic effects of tested compounds. […] 4-nitroquinoline- N-oxide (4-NQNO; 0.25 μg/plate) for TA98 and sodium azide (NaN3; 0.25 μg/plate) for TA100 were used as positive controls without S9 metabolic activation, while benzo[a]pyrene (B[a]P; 2.5 μg/plate) was used as positive controls for both bacterial strains with S9 metabolic activation.

T1 sequence (Q12809 whole entry): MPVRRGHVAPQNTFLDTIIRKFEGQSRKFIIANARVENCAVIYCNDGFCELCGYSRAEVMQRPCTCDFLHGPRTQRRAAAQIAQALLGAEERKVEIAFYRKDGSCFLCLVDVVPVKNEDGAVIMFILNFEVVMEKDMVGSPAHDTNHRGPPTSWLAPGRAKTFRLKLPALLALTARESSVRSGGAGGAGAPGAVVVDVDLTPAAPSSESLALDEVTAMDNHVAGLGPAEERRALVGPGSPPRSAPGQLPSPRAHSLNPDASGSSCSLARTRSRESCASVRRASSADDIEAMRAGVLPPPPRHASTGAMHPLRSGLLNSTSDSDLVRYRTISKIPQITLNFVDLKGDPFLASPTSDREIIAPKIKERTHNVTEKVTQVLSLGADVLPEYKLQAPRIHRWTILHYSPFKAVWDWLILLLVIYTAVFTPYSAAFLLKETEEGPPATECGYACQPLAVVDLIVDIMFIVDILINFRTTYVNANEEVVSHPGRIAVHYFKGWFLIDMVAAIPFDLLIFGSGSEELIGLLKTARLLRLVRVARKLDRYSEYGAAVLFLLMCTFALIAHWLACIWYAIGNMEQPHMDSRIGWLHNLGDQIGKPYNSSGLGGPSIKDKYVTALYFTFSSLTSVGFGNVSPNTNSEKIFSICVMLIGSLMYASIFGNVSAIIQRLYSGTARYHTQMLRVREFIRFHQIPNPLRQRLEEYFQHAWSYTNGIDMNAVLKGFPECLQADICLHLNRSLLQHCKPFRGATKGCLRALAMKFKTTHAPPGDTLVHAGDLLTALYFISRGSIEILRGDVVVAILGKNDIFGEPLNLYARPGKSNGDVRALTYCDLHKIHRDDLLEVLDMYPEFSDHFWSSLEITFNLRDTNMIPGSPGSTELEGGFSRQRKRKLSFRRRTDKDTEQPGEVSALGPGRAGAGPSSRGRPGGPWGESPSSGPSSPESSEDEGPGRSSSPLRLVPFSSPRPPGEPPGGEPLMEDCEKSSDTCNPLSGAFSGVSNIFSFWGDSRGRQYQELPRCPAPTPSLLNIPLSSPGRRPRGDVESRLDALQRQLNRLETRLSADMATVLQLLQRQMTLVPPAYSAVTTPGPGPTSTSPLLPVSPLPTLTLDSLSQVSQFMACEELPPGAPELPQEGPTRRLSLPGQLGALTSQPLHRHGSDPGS

O=[N+]([O-])c1cc(C(F)(F)F)ccc1Nc1ccc(OCC(O)CN2CCOCC2)cc1 (centres unmarked) [Compound 8]
IC50 (hERG): 0.156 µM
effect on growth of MCF-7 cells (MCF-7 cells; concentrations tested): ineffective; also recorded: inactive
mutagenic response [1]: no mutagenic response
cytotoxic concentration to bacterial strain [1]: ≥ 0.5 mg/plate

CN(C)CC(O)COc1ccc(Nc2ccc(C(F)(F)F)cc2[N+](=O)[O-])cc1 (centres unmarked) [ZVS-08]
IC50 (hERG): 0.194 µM
IC50 (MCF-7 cells; Homo sapiens, MCF7, 72 h): 6.8 µM
IC50 (MCF-7 cells): ~5 µM
mutagenic response [1]: no mutagenic response
Average number of revertant colonies (mean ± SD) ([1]; TA98, +S9, 0.0158 mg/plate): 31.00 ± 3.61
induction factor (IF) ([1]; TA98, +S9, 0.0158 mg/plate): 0.85
Average number of revertant colonies (mean ± SD) ([1]; TA98, +S9, 0.05 mg/plate): 45.33 ± 8.62
induction factor (IF) ([1]; TA98, +S9, 0.05 mg/plate): 1.25
Average number of revertant colonies (mean ± SD) ([1]; TA98, +S9, 0.158 mg/plate): 34.67 ± 14.05
bacterial background lawn ([1]; TA98, +S9, 0.158 mg/plate): a
induction factor (IF) ([1]; TA98, +S9, 0.158 mg/plate): 0.95
Average number of revertant colonies (mean ± SD) ([1]; TA98, +S9, 0.5 mg/plate): 0
bacterial background lawn ([1]; TA98, +S9, 0.5 mg/plate): b
Average number of revertant colonies (mean ± SD) ([1]; TA98, +S9, 1.58 mg/plate): 0
bacterial background lawn ([1]; TA98, +S9, 1.58 mg/plate): d
Average number of revertant colonies (mean ± SD) ([1]; TA98, +S9, 5 mg/plate): 0
bacterial background lawn ([1]; TA98, +S9, 5 mg/plate): d
Average number of revertant colonies (mean ± SD) ([1]; TA98, -S9, 0.0158 mg/plate): 21.67 ± 4.51
induction factor (IF) ([1]; TA98, -S9, 0.0158 mg/plate): 0.86
Average number of revertant colonies (mean ± SD) ([1]; TA98, -S9, 0.05 mg/plate): 22.67 ± 8.08
induction factor (IF) ([1]; TA98, -S9, 0.05 mg/plate): 0.89
Average number of revertant colonies (mean ± SD) ([1]; TA98, -S9, 0.158 mg/plate): 17.67 ± 3.79
bacterial background lawn ([1]; TA98, -S9, 0.158 mg/plate): a
induction factor (IF) ([1]; TA98, -S9, 0.158 mg/plate): 0.70
Average number of revertant colonies (mean ± SD) ([1]; TA98, -S9, 0.5 mg/plate): 0
bacterial background lawn ([1]; TA98, -S9, 0.5 mg/plate): c
Average number of revertant colonies (mean ± SD) ([1]; TA98, -S9, 1.58 mg/plate): 0
bacterial background lawn ([1]; TA98, -S9, 1.58 mg/plate): d
Average number of revertant colonies (mean ± SD) ([1]; TA98, -S9, 5 mg/plate): 0
bacterial background lawn ([1]; TA98, -S9, 5 mg/plate): d
cytotoxic concentration to bacterial strain [1]: ≥ 0.5 mg/plate
